Patent US20190374533A1, “COMPOUNDS AND METHODS FOR INHIBITING NHE-MEDIATED ANTIPORT IN THE TREATMENT OF DISORDERS ASSOCIATED WITH FLUID RETENTION OR SALT OVERLOAD AND GASTROINTESTINAL TRACT DISORDERS” (Ardelyx, Inc., priority 2008, published 2019)
Counter-ions that a name gives are not always drawn.

What was measured:
[1] = system: gastrointestinal motility; assay: Restoration of gastrointestinal motility in opioid induced constipation (loperamide); assay type: in vivo, mice; conditions: 15 mg/kg oral gavage, loperamide s.c., Evans Blue dye front after 30 minutes
NHE3 = biological target: T1, NHE3 (Homo sapiens, UniProt P48764); assay: Sustained inhibition of apical acid secretion in human organoid monolayer cell cultures (duodenum); assay type: cell-based; conditions: 1 μM apical
T1 construct: due to the increase in NHE3 expression after differentiation; endogenous in cells; host or cells: human ileum / duodenum organoid-derived monolayers
T1 sequence (P48764 26-834): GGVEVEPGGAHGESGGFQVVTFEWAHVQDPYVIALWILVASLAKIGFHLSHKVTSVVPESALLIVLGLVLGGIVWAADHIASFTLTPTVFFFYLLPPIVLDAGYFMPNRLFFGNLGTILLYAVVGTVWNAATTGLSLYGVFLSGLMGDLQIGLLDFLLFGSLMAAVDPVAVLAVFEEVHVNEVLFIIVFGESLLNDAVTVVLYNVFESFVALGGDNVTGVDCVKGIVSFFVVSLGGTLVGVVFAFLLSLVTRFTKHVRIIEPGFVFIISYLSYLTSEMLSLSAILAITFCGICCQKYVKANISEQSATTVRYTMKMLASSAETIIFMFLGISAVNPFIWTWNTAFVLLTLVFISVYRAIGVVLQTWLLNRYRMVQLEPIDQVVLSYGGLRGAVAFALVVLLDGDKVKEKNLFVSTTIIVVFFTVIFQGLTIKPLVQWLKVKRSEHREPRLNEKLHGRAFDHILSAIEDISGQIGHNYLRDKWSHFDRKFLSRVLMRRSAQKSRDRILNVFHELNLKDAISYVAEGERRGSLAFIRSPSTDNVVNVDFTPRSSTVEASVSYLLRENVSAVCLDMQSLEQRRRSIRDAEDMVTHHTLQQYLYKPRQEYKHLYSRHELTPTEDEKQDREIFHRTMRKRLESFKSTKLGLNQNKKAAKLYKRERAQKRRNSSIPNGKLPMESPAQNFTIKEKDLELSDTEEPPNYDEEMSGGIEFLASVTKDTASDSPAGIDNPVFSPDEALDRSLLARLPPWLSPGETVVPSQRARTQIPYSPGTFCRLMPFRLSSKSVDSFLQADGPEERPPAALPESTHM

[2] = system: absorption of sodium from the intestinal lumen; assay: Inhibition of intestinal sodium absorption in rats; assay type: in vivo, rat; conditions: Sprague Dawley rats, 0.1 mg/kg oral gavage, 13-hours post-dose
Method: Urinary sodium excretion and fecal form were measured to assess the ability of selected example compounds to inhibit the absorption of sodium from the intestinal lumen. Eight-week old, male, Sprague Dawley rats were purchased from Envigo (Livermore, Calif.), were housed 2 per cage and acclimated for at least 48 hours before study initiation. Animals were fed Harlan Teklad Global TD.160470 rodent chow (Maddison, Wis.), standard laboratory rodent chow Harlan Teklad Global 2018 with the addition of 0.4% inorganic phosphorous. […] At 13-hours post-dose, urine samples were collected and fecal form was assessed. In addition, the weight of food consumed over the 13-hour period was measured and recorded. Fecal forms were scored according to a common scale associated with increasing fecal water to the wettest observation in the cage's collection funnel (1, normal pellet; 2, pellet adhering to sides of collection funnel due to moisture; 3, loss of normal pellet shape: 4, complete loss of shape with a blotting pattern; 5, liquid fecal streams evident). Fecal form score (FFS) was calculated for each group as the median of each individual rat's FFS within the group and reported in Table 12. Fecal samples were dried using a lyophilizer for at least 3 days, following which dry weight was recorded and fecal fluid content was calculated based on the difference between the wet and dry stool weights. […]

Row | % inhibition (duodenum) (NHE3) | Compound | % Restoration of Transit [1] | Urinary Na (% of Vehicle, out/in) ([2]; normalized to dietary sodium intake) | FFS (1-5) ([2]; fecal form score, group median)
1 | C (>70%) | CN1Cc2c(Cl)cc(Cl)cc2[C@H](c2cccc(S(=O)(=O)NCCOCCOCCNC(=O)NCCCCNC(=O)NCCOCCOCCNS(=O)(=O)c3cccc([C@@H]4CN(C)Cc5c(Cl)cc(Cl)cc54)c3)c2)C1 (single isomer, unassigned) [Example 202, (S or R)—N,N′-(10,17-dioxo-3,6,21,24-tetraoxa-9,11,16,18-tetraazahexacosane-1,26-diyl)bis(3-((S)-6,8-dichloro-2-methyl-1,2,3,4-tetrahydroisoquinolin-4-yl)benzenesulfonamide) bis-hydrochloride salt] | C (>40%) |  | 
2 |  | CN1Cc2c(Cl)cc(Cl)cc2[C@H](c2cccc(S(=O)(=O)NCCOCCOCCNC(=O)Nc3ccc(NC(=O)NCCOCCOCCNS(=O)(=O)c4cccc([C@@H]5CN(C)Cc6c(Cl)cc(Cl)cc65)c4)cc3)c2)C1 (single isomer, unassigned) [Example 203, (S or R)—N,N′-(2,2′-(2,2′-(2,2′-(1,4-phenylenebis(azanediyl))bis(oxomethylene)bis(azanediyl)bis(ethane-2,1-diyl))bis(oxy)bis(ethane-2,1-diyl))bis(oxy)bis(ethane-2,1-diyl))bis(3-((S or R)-6,8-dichloro-2-methyl-1,2,3,4-tetrahydroisoquinolin-4-yl)benzenesulfonamide) bis-hydrochloride salt] |  | C (<40%) | 3
